Bounds are passed on as bounds.

For the assay, the target named is T1, Murine PKD1 kinase domain (Mus musculus, UniProt Q62101).
T1 construct: hexahistidine (pFastBac HTb leader) (N); made in house; host or cells: Sf9 insect cells, baculovirus (Bac-to-Bac HT, pFastBac HTb)
T1 sequence (Q62101 with tags, fused parts or gaps R683W): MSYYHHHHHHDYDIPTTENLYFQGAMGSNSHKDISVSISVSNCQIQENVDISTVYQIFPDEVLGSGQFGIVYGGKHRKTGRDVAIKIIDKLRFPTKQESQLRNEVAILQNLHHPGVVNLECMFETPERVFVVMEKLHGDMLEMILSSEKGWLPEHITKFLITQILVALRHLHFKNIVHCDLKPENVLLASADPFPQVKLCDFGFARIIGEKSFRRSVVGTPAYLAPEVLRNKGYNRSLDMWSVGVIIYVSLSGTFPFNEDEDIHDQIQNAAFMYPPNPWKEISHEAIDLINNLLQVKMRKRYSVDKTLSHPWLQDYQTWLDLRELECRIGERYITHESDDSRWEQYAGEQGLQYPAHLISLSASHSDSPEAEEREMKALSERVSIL
As to the kind of experiment: PKD1 (Murine Kinase Domain) Enzyme Activity Assay (IMAP fluorescence polarisation). The following applies: 10 μM ATP, 60 minutes, room temperature. The class given is biochemical. From the text: The DNA sequence corresponding to murine PKD1 (see FIG. 1) was inserted into pFastBAc Htb (Invitrogen, USA) at BamH1 and EcoR1 sites using standard molecular biology techniques.
The PKD1 described above was expressed as a hexahistidine tagged protein construct using a commercially available baculoviral expression system that induces protein production in insect cell culture (Bac-to-Bac® HT Baculovirus Expression System, Invitrogen). Protein was typically expressed by inoculating 1 L of sf9 cells with a genetically modified baculovirus containing the gene for the kinase domain of PKD1. Sf9 cells were obtained from ICR Ltd.
Purification of PKD1 was achieved by standard chromatographic procedures. Capture from crude centrifuged lysed cell supernatant was achieved using metal affinity chromatography (GE Healthcare Life Sciences, HiTrap Chelating chromatography column), and fractions showing PKD1 (as assessed by gel electrophoresis and western blot) were further purified by a single polish purification step performed using a mono Q anion exchange chromatography system (GE Healthcare Life Sciences, HiTrap HP Q column). […] This protocol describes the method for screening compounds as inhibitors of Protein Kinase D activity in a 384 well microplate format fluorescence polarisation IMAP assay performed using the Biomek FX.
Kinase Enzyme: Murine PKD1 kinase domain at ˜100 μg/mL, was purified from baculovirus (as described above), obtained from aliquots stored at −70° C. PKD was prepared with a final concentration of 0.1 μg/mL by diluting 1:300 in Reaction Buffer (30 μL per 9 mL-5 mL per plate with an additional 4 mL dead volume) and vortexing prior to use. It was necessary to check this concentration regularly in case of enzyme degradation.
(also known as MAPKAP K2 substrate) was obtained from Molecular Devices (Product code R7127). It was used at 300 nM by diluting 20 μM stock 1:66 in Kinase/Reaction Buffer (135 μL per 9 mL; 75 μL per 5 mL Reaction Buffer for blank wells requiring <1 mL per place with an additional 4 mL dead volume).
A 1 mM ATP stock in Reaction Buffer was prepared from a 10 mM stock in 20 mM NaOH and stored as aliquots at −70° C. It was used at 40 μM by diluting 1 mM stock 1:25 in Reaction Buffer (240 μL per 6 mL-2 mL per plate with an additional 4 mL dead volume) and vortexing prior to use.
IMAP Reagents: IMAP Binding Reagent (product code R7207) and Binding Buffer (product code R7208) were obtained from Molecular Devices and stored at +4° C. The beads were gently re-suspended before diluting by 1:400 in buffer (Binding Buffer is supplied as a 5× stock and so was diluted with water prior to use) and then vortexing before addition to wells. 16 mL water with 4 mL Binding Buffer and 50 μL Binding Reagent were used per plate (17 mL per plate with an additional 3 mL dead volume).
13 μL Substrate in Reaction Buffer was added to ‘blank’ wells to give 200 nM reaction concentration. […] 2 μL 10% DMSO/water was added to ‘blank’ and ‘control’ wells. 5 μL ATP in Reaction Buffer was added to all wells to give 10 μM reaction concentration. The reaction mixture was then incubated at room temperature for 60 minutes. The incubation period was followed by the addition of 40 μL IMAP Binding Reagent in Binding Buffer to all wells. The reaction was then further incubated at room temperature for […].
Percentage inhibition was calculated based on activity of the test sample minus the average values in the blank wells relative to the average values measured in control wells minus the average values in the blank wells.
IC50 values were calculated from 10 point dose sigmoid ‘dose-response’ curves using Xlfit software (IDBS inc, USA). Data were fitted to a 4 parameter logistic model/sigmoidal dose response:
where: A=fit minimum (locked to 0); B=fit maximum (locked to 100); C=fit midpoint (pre-fit to 1); D=slope at linear portion of curve, hillslope (pre-fit to 0.1)
The IC50 is the concentration needed to halve the response being measured. Low readings indicate greater potency, high ones weaker potency. For the compound `COc1cncc(-c2cc(-c3cccc(C(=O)NCCN(C)C)c3)cnc2N)c1` [Y-089, 3-(2-Amino-5′-methoxy-[3,3′]bipyridinyl-5-yl)-N-(2-dimethylamino-ethyl)-benzamide], the half-inhibitory concentration (IC50) is < 1000 nM.

Regarding `CN(C)CCCNC(=O)c1cccc(-c2cncc(-c3ccc(O)cc3)n2)c1` [X-004, N-(3-Dimethylamino-propyl)-3-[6-(4-hydroxy-phenyl)-pyrazin-2-yl]-benzamide], the IC50 was < 1000 nM.

In turn, `COc1ccccc1-c1cncc(-c2cccc(C(=O)NCCN(C)C)c2)n1` [X-002, N-(2-Dimethylamino-ethyl)-3-[6-(2-methoxy-phenyl)-pyrazin-2-yl]-benzamide] yielded an IC50 of 1000 to 10000 nM.

As to `CN(C)CCNC(=O)c1cccc(-c2cnc(N)c(-c3cccc4cnccc34)c2)c1` [Y-018, 3-(6-Amino-5-isoquinolin-5-yl-pyridin-3-yl)-N-(2-dimethylamino-ethyl)-benzamide], the half-inhibitory concentration (IC50) was 1000 to 10000 nM.

For the compound `COc1cc(-c2cncc(-c3cccc(C(=O)NCCN(C)C)c3)n2)cc(OC)c1OC` [X-003, N-(2-Dimethylamino-ethyl)-3-[6-(3,4,5-trimethoxy-phenyl)-pyrazin-2-yl]-benzamide], the IC50 was in the range of 1000 to 10000 nM.

As for `CN(C)CCNC(=O)c1cccc(-c2cnc(N)c(-c3cccc4c3sc3ccccc34)c2)c1` [Y-015, 3-(6-Amino-5-dibenzothiophen-4-yl-pyridin-3-yl)-N-(2-dimethylamino-ethyl)-benzamide], the IC50 is < 1000 nM.

With `CN(C)CCNC(=O)c1cccc(-c2cnc(N)c(-c3ccc(F)cc3)c2)c1` [Y-058, 3-[6-Amino-5-(4-fluoro-phenyl)-pyridin-3-yl]-N-(2-dimethylamino-ethyl)-benzamide], the IC50 was < 1000 nM.

Turning to `CN(C)CCNC(=O)c1cccc(-c2cnc(N)c(-c3ccc(F)c(F)c3)c2)c1` [Y-033, 3-[6-Amino-5-(3,4-difluoro-phenyl)-pyridin-3-yl]-N-(2-dimethylamino-ethyl)-benzamide], the IC50 was < 1000 nM.

Consider `COc1ccc(-c2cc(-c3cccc(C(=O)NCCN(C)C)c3)cnc2N)cc1F` [Y-043, 3-[6-Amino-5-(3-fluoro-4-methoxy-phenyl)-pyridin-3-yl]-N-(2-dimethylamino-ethyl)-benzamide], for which the half-inhibitory concentration (IC50) is < 1000 nM.

Consider `CN(C)CCNC(=O)c1cccc(-c2cnc(N)c(-c3ccc(Oc4ccccc4)cc3)c2)c1` [Y-067, 3-[6-Amino-5-(4-phenoxy-phenyl)-pyridin-3-yl]-N-(2-dimethylamino-ethyl)-benzamide], for which the IC50 is < 1000 nM.

The compound `CC(C)Oc1cccc(-c2cc(-c3cccc(C(=O)NCCN(C)C)c3)cnc2N)c1` [Y-046, 3-[6-Amino-5-(3-isopropoxy-phenyl)-pyridin-3-yl]-N-(2-dimethylamino-ethyl)-benzamide] had an IC50 of 1000 to 10000 nM.

Take `CN(C)CCNC(=O)c1cccc(-c2cnc(N)c(-c3ccccc3OCc3ccccc3)c2)c1` [Y-030, 3-[6-Amino-5-(2-benzyloxy-phenyl)-pyridin-3-yl]-N-(2-dimethylamino-ethyl)-benzamide]: the IC50 lay within 1000 to 10000 nM.

The compound `COc1ccccc1-c1cc(-c2cccc(C(=O)N3CCN(C)CC3)c2)cnc1N` [Y-003, {3-[6-Amino-5-(2-methoxy-phenyl)-pyridin-3-yl]-phenyl}-(4-methyl-piperazin-1-yl)-methanone] registered a 50% inhibitory concentration (IC50) of 1000 to 10000 nM.

As to `COc1ccc(-c2cc(-c3cccc(C(=O)NCCN(C)C)c3)cnc2N)cn1` [Y-008, 3-(2-Amino-6′-methoxy-[3,3′]bipyridinyl-5-yl)-N-(2-dimethylamino-ethyl)-benzamide], the concentration for half-maximal inhibition (IC50) is 1000 to 10000 nM.

For the compound `COc1ncc(-c2cc(-c3cccc(C(=O)NCCN(C)C)c3)cnc2N)c(OC)n1` [Y-029, 3-[6-Amino-5-(2,4-dimethoxy-pyrimidin-5-yl)-pyridin-3-yl]-N-(2-dimethylamino-ethyl)-benzamide], the IC50 was < 1000 nM.

For the compound `COc1ccc(-c2cc(-c3cccc(C(=O)NCCN(C)C)c3)cnc2N)cc1` [Y-063, 3-[6-Amino-5-(4-methoxy-phenyl)-pyridin-3-yl]-N-(2-dimethylamino-ethyl)-benzamide], the IC50 was < 1000 nM.

Turning to `CN(C)CCNC(=O)c1cccc(-c2cnc(N)c(-c3ccnc(Cl)c3)c2)c1` [Y-085, 3-(2-Amino-2′-chloro-[3,4′]bipyridinyl-5-yl)-N-(2-dimethylamino-ethyl)-benzamide], the half-inhibitory concentration (IC50) is < 1000 nM.

On to `COc1cc(-c2cncc(-c3cccc(C(=O)N4CCNCC4)c3)n2)ccc1O` [X-010, {3-[6-(4-Hydroxy-3-methoxy-phenyl)-pyrazin-2-yl]-phenyl}-piperazin-1-yl-methanone], for which the 50% inhibitory concentration (IC50) lay within 1000 to 10000 nM.

`COc1cc(-c2nc(-c3cccc(C(=O)NCCN(C)C)c3)cnc2N)ccc1F` [X-016, 3-[5-Amino-6-(4-fluoro-3-methoxy-phenyl)-pyrazin-2-yl]-N-(2-dimethylamino-ethyl)-benzamide]: the IC50 was < 1000 nM.

For the compound `COc1cc(-c2cc(-c3cccc(C(=O)NCCCN(C)C)c3)cnc2N)ccc1O` [Y-060, 3-[6-Amino-5-(4-hydroxy-3-methoxy-phenyl)-pyridin-3-yl]-N-(3-dimethylamino-propyl)-benzamide], the 50% inhibitory concentration (IC50) is < 1000 nM.

As for `COc1cc(-c2cc(-c3cccc(C(=O)NCCN(C)C)c3)cnc2N)ccn1` [Y-005, 3-(2-Amino-2′-methoxy-[3,4′]bipyridinyl-5-yl)-N-(2-dimethylamino-ethyl)-benzamide], the concentration for half-maximal inhibition (IC50) was < 1000 nM.

Turning to `CN(C)CCNC(=O)c1cccc(-c2cnc(N)c(-c3cccc4cccnc34)c2)c1` [Y-023, 3-(6-Amino-5-quinolin-8-yl-pyridin-3-yl)-N-(2-dimethylamino-ethyl)-benzamide], the IC50 is < 1000 nM.

On to `CCSc1ccc(-c2cc(-c3cccc(C(=O)NCCN(C)C)c3)cnc2N)cc1` [Y-053, 3-[6-Amino-5-(4-ethylsulfanyl-phenyl)-pyridin-3-yl]-N-(2-dimethylamino-ethyl)-benzamide], for which the half-inhibitory concentration (IC50) was < 1000 nM.

Regarding `CN(C)CCNC(=O)c1cccc(-c2cnc(N)c(-c3cccc(CC#N)c3)c2)c1` [Y-080, 3-[6-Amino-5-(3-cyanomethyl-phenyl)-pyridin-3-yl]-N-(2-dimethylamino-ethyl)-benzamide], the IC50 is < 1000 nM.

As to `CSc1nccc(-c2cc(-c3cccc(C(=O)NCCN(C)C)c3)cnc2N)n1` [Y-086, 3-[6-Amino-5-(2-methylsulfanyl-pyrimidin-4-yl)-pyridin-3-yl]-N-(2-dimethylamino-ethyl)-benzamide], the IC50 is < 1000 nM.

On to `COc1cccc(-c2cc(-c3cccc(C(=O)NCCN(C)C)c3)cnc2N)n1` [Y-083, 3-(2′-Amino-6-methoxy-[2,3′]bipyridinyl-5′-yl)-N-(2-dimethylamino-ethyl)-benzamide], for which the IC50 was < 1000 nM.

For `COc1cc(-c2cc(-c3cccc(C(N)=O)c3)cnc2N)ccc1O` [Y-001, 3-[6-Amino-5-(4-hydroxy-3-methoxy-phenyl)-pyridin-3-yl]-benzamide], the concentration for half-maximal inhibition (IC50) was < 1000 nM.

The values above are taken from patent publication US20110098325A1, “PYRIDINE BENZAMIDES AND PYRAZINE BENZAMIDES USED AS PKD INHIBITORS” (CANCER RESEARCH TECHNOLOGY LIMITED, priority 2006, published 2011).
